According to patent US7824866B2, “Ligand for G-protein coupled receptor GPR72 and uses thereof” (Euroscreen S.A., priority 2006, dated 2010):

The compounds below were run against T1, human GPR72 (Homo sapiens, UniProt Q9NYM4) (assay: aequorin intracellular calcium release assay, CHO-K1 cells expressing human GPR72). Conditions: CHO-K1 cells coexpressing human GPR72 and apoaequorin; mock-transfected cells as control; FIG. 5.
Format: cell-based
Set-up: expressed in transfected cells; host or cells: CHO-K1 cells coexpressing mitochondrial apoaequorin and a G alpha subunit (Gα16)
Method: (§1) The aequorin assay takes advantage of the responsiveness of mitochondrial apoaequorin to intracellular calcium release induced by the activation of GPCRs (Stables et al., 1997, Anal. Biochem. 252:115-126; Detheux et al., 2000, J. Exp. Med., 192 1501-1508; both of which are incorporated herein by reference). Briefly, GPR72 polypeptide-expressing clones are transfected to coexpress mitochondrial apoaequorin and Gα16. Cells are incubated with 5 μM Coelenterazine H (Molecular Probes) for 4 hours at room temperature, washed in DMEM-F12 culture medium and resuspended at a concentration of 0.5×10^6 cells/ml. Cells are then mixed with test agonist molecules and light emission by the aequorin is recorded with a luminometer for 30 sec. Results are expressed as Relative Light Units (RLU). Controls include assays using membranes isolated from cells not expressing GPR72 polypeptide (mock transfected), in order to exclude possible non-specific effects of the candidate compound.
GPR72 expressing clones have been obtained by transfection of CHO-K1 cells to coexpressing mitochondrial apoaequorin and […], limiting dilution and selection by RT-PCR. Positive clones were used for biological extract library screening with porcine spleen extracts prepared as described above. A functional assay based on the luminescence of mitochondrial aequorin intracellular Ca^2+ release (Stables et al., 1997, Anal. Biochem. 252:115-126; incorporated herein by reference) was performed as described (Detheux et al., 2000, J. Exp. Med., 192 1501-1508; incorporated herein by reference). Briefly, cells were collected from plates in PBS containing 5 mM EDTA, pelleted and resuspended at 5×10^6 cells/ml in DMEM-F12 medium. Cells were incubated with 5 μM Coelenterazine H (Molecular Probes) for 4 hours at room temperature. Cells were then washed in DMEM-F12 medium and resuspended at a concentration of 0.5×10^6 cells/ml. Cells were then mixed with test agonist peptides or plates containing tissue extracts and the light emission was recorded for 30 sec using a Microlumat luminometer (Perkin Elmer). Results are expressed as Relative Light Units (RLU).
After being identified from active porcine […] fraction, ability of arachidonic acid to trigger intracellular calcium release was tested on CHO-K1 cell lines coexpressing the human or the mouse GPR72 receptor and apoaequorin. We have used the aequorin assay as previously described in Detheux et al. (2000) J exp Med. 192, 1501-1508. […] Arachidonic acid was also able to activate specifically the mouse GPR72 at concentration around 5 micromolar (FIG. 6).
PUFAs were tested on CHO-K1 cells stably expressing the human GPR72 for their ability to trigger intracellular calcium using aequorin. Obtained EC50 are in the 1-20 μM range (FIG. 7).

T1 sequence (Q9NYM4 17-423): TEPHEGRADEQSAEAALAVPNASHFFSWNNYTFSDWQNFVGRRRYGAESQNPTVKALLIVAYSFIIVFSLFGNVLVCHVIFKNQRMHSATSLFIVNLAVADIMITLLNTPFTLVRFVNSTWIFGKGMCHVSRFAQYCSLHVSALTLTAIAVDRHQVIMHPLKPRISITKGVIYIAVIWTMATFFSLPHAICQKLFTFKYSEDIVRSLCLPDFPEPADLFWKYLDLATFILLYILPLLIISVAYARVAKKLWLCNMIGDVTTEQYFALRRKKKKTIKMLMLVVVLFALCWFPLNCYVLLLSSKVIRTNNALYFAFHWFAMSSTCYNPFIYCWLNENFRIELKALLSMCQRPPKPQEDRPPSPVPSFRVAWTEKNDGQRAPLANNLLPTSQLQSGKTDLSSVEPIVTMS

Structure (SMILES)	concentration at which the human GPR72 is specifically activated
CCCCC/C=C\C/C=C\C/C=C\C/C=C\CCCC(=O)O [arachidonic acid, 5,8,11,14-all-cis-eicosatetraenoic acid]	around 5 micromolar

Same assay, conditions: human GPR72 receptor; FIG. 8

Structure (SMILES)	activity on GPR72 (structure-activity relationship)
CCCCC/C=C\C/C=C\C/C=C\C/C=C\CCCC(=O)NCCS(=O)(=O)O [N-arachidonoyl-L-taurine]	active
CCCCC/C=C\C/C=C\C/C=C\C/C=C\CCCC(=O)NCC(=O)O [N-arachidonoyl-glycine]	active
CCCCC/C=C\C/C=C\C/C=C\C/C=C\CCCC(=O)OC [arachidonic acid methyl ester]	not active
CCCCC/C=C\C/C=C\C/C=C\C/C=C\CCCC(=O)O [arachidonic acid, 5,8,11,14-all-cis-eicosatetraenoic acid]	active

What follows are compounds tested against T2, mouse GPR72 (Mus musculus, UniProt P30731) (assay: aequorin intracellular calcium release assay, CHO-K1 cells expressing mouse GPR72). Conditions: CHO-K1 cells coexpressing mouse GPR72 and apoaequorin; FIG. 6.
T2 construct: expressed in transfected cells; host or cells: CHO-K1 cells coexpressing apoaequorin
Format: cell-based
Method: as §1, with “Controls include assays using membranes isolated from cells not expressing GPR72 polypeptide (mock transfected), in order to exclude possible non-specific effects of the candidate compound.” left out
GPR72 expressing clones have been obtained by transfection of CHO-K1 cells to coexpressing mitochondrial apoaequorin and […], limiting dilution and selection by RT-PCR. […] A functional assay based on the luminescence of mitochondrial aequorin intracellular Ca^2+ release (Stables et al., 1997, Anal. Biochem. 252:115-126; incorporated herein by reference) was performed as described (Detheux et al., 2000, J. Exp. Med., 192 1501-1508; incorporated herein by reference). […] Results are expressed as Relative Light Units (RLU). […]

T2 sequence (P30731 18-423): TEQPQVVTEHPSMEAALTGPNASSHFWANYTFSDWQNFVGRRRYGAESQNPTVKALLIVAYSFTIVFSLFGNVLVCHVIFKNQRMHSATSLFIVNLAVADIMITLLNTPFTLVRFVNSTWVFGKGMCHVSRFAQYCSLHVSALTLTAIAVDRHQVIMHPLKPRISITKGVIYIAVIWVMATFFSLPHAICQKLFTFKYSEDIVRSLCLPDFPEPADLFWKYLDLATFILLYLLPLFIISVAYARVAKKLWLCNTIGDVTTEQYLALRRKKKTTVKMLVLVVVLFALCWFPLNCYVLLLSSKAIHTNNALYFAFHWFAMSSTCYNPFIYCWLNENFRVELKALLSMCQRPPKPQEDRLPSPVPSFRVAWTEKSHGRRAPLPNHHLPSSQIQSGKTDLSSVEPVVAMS

Structure (SMILES)	concentration at which the mouse GPR72 is specifically activated
CCCCC/C=C\C/C=C\C/C=C\C/C=C\CCCC(=O)O [arachidonic acid, 5,8,11,14-all-cis-eicosatetraenoic acid]	around 5 micromolar

The compounds below were run against T1, human GPR72 (assay: Aequorin-based functional assay: intracellular calcium release (luminescence) in CHO-K1 cells stably expressing human GPR72, mitochondrial apoaequorin and Galpha16). Conditions: not given.
Format: cell-based
Set-up: expressed in transfected cells

Structure (SMILES)	EC50 [µM]
CCCCC/C=C\C/C=C\C/C=C\C/C=C\CCCC(=O)O [Eicosa-5Z,8Z,11Z,14Z-tetraenoic acid]	5
CCCCC/C=C\C/C=C\C/C=C\C/C=C\CCCC(=O)NCC(=O)O [N-arachidonoyl-glycine]	3.5
CC/C=C\C/C=C\C/C=C\CCCCCCCC(=O)O [Octadeca-9Z,12Z,15Z-trienoic acid]	4.7

Same assay, conditions: Figure 8, SAR of arachidonic acid on human GPR72 activation; CHO-K1 cells, aequorin; read-out: GPR72 EC50

EC50 [µM]	Structure (SMILES)
0.4	CC1=C(/C=C/C(C)=C\C=C\C(C)=C\C(=O)O)C(C)(C)CCC1 [9-cis-Retinoic acid]
86	CC1=C(/C=C/C(C)=C/C=C/C(C)=C/C(=O)O)C(C)(C)CCC1 [All-trans-retinoic acid]
2	CC/C=C\C/C=C\C/C=C\C/C=C\C/C=C\C/C=C\CCC(=O)O [Docosa-4Z,7Z,10Z,13Z,16Z,19Z-hexaenoic acid]
9.3	CC/C=C\C/C=C\C/C=C\C/C=C\C/C=C\CCCCCC(=O)O [Docosa-7Z,10Z,13Z,16Z,19Z-pentaenoic acid]
25	CC/C=C\C/C=C\C/C=C\CCCCCCCCCCCC(=O)O [Docosa-13Z,16Z,19Z-trienoic acid]
3.3	CC/C=C\C/C=C\C/C=C\C/C=C\C/C=C\CCCC(=O)O [Eicosa-5Z,8Z,11Z,14Z,17Z-pentaenoic acid]
6.3	CCCCCCCC/C=C\C/C=C\C/C=C\CCCC(=O)O [Eicosa-5Z,8Z,11Z-trienoic acid]
6	CC/C=C\C/C=C\C/C=C\C/C=C\CCCCCCC(=O)O [Eicosa-8Z,11Z,14Z,17Z-tetraenoic acid]
44	CCCCC/C=C\C/C=C\C/C=C\CCCCCCC(=O)O [Eicosa-8Z,11Z,14Z-trienoic acid]
17.9	CCCCC/C=C\C/C=C\CCCCCCCCCC(=O)O [Eicosa-11Z,14Z-dienoic acid]
0.8	CCCCC/C=C\C/C=C\C/C=C\CCCCC(=O)O [Octadeca-6Z,9Z,12Z-trienoic acid]

Structure (SMILES)	EC50 [µM]
CCCCC/C=C\C/C=C\C/C=C\C/C=C\CCCC(=O)NCC(O)CC(=O)O (stereo not drawn) [N-arachidonoyl-3-hydroxy-γ-aminobutyric acid]	0.7
CCCCC/C=C\C/C=C\C/C=C\C/C=C\CCCC(=O)N[C@@H](C)C(=O)O [N-arachidonoyl-L-alanine]	2.9
CCCCC/C=C\C/C=C\C/C=C\C/C=C\CCCC(=O)N[C@@H](CO)C(=O)O [N-arachidonoyl-L-serine]	3
CCCCC/C=C\C/C=C\C/C=C\C/C=C\CCCC(=O)NCCS(=O)(=O)O [N-arachidonoyl-L-taurine]	1.3
CCCCC/C=C\C/C=C\C/C=C\C/C=C\CCCC(=O)NCCCC(=O)O [N-arachidonoyl-γ-aminobutyric acid]	4.3

Same assay, conditions: Figure 9, additional PUFAs; CHO-K1 cells stably expressing human GPR72, aequorin; read-out: human GPR72 receptor EC50

EC50 [µM]	Structure (SMILES)
16	CC1=C(/C=C/C(C)=C/C=C/C(C)=C\C(=O)O)C(C)(C)CCC1 [13-cis-Retinoic acid]
10	CCCCC/C=C\C/C=C\C/C=C\C/C=C\CCCCCC(=O)O [Docosa-7Z,10Z,13Z,16Z-tetraenoic acid]
27	CCCCCC#CCC#CCC#CCC#CCCCC(=O)O [Eicosa-5,8,11,14-tetraynoic acid]
12	CCCCCCCCC#CCC#CCC#CCCCC(=O)O [Eicosa-5,8,11-triynoic acid]
25	CC/C=C\C/C=C\C/C=C\CCCCCCCCCC(=O)O [Eicosa-11Z,14Z,17Z-trienoic acid]
74	CC/C=C\C/C=C\C/C=C\C/C=C\CCCCC(=O)O [Octadeca-6Z,9Z,12Z,15Z-tetraenoic acid]

Same assay, conditions: Figure 10, thiazolidinediones; CHO-K1 cells stably expressing human GPR72, aequorin; read-out: human GPR72 receptor EC50

EC50 [µM]	Structure (SMILES)
35	CC1(COc2ccc(CC3SC(=O)NC3=O)cc2)CCCCC1 (stereo not drawn) [Ciglitazone]
25	O=C1NC(=O)C(Cc2ccc3cc(OCc4ccccc4F)ccc3c2)S1 (stereo not drawn) [MCC-555]
